{"source": "patent US20200222418A1", "about": "“USE OF PHENOTHIAZINE DERIVATIVE IN THE TREATMENT OF INFECTION CAUSED BY BACTERIA CARRYING TYPE IV PILI” (priority 2017, published 2020)", "key": {"[1]": {"test_system": "N. meningitidis 2C4.3 PilT mutant type IV pili", "experiment": "Surface expression of type IV pili by transmission electron microscopy, PilT mutant", "type": "cell-based, Neisseria meningitidis", "conditions": "50 μM", "protocol": "N. meningitidis 2C4.3 wild type strain and the isogenic derivative mutant PilT ([…]PiIT) were grown in liquid culture at 10^7 CFU/ml for 2 h to form bacterial aggregates and then treated with 50 μM Trifluoperazine for 15 minutes before analysis by transmission electron microscopy. Arrows point at bundles of type IV pili expressed at the bacterial surface.\nN. meninigitidis 2C4.3 strain and the isogenic derivative mutant PilT, where the pilT gene was interrupted by an erythromycin-resistance cassette (Pujol et al., 1999), were grown in suspension in DMEM medium supplemented with 10% heat-inactivated fetal calf serum. PilT belongs to a highly conserved protein family homologous to AAA-type motor proteins and is proposed to cause the retraction of type IV pili by disassembling the pilin subunits at the base of the fiber (Morand et al., 2004). After 2 h of growth, Trifluoperazine (or control vehicle) was added at 50 μM for 20 min. The effect on bacterial aggregates were visualized over time using a phase-contrast microscope or the bacterial suspensions were fixed in 4% Paraformaldehyde for 10 min, centrifuged at 1000 rpm for 5 minutes and the bacterial pellets washed in PBS. After negative staining with 1% phosphotungstic acid, bacteria were analysed by transmission electron microscopy, using a JEOL 1011 microscope."}, "[2]": {"test_system": "Enteropathogenic Escherichia coli (EPEC ΔescN-GFP) microcolonies on HBMEC", "experiment": "Dispersion of EPEC microcolonies on HBMEC", "type": "cell-based", "conditions": "10 to 50 μM, 30 min", "protocol": "Human […] microvascular endothelial cells (HBMEC) were infected with a GFP-expressing mutant Enteropathogenic Escherichia coli, which lacks the ATPase escN (EPEC ΔescN-GFP) for 2 h, then treated with Trifluoperazine (10-50 μM) for 30 minutes, before fixation and immunofluorescence analysis using Alexa Fluor 633 Phalloidin. (A) Representative fluorescence microscopy showing bacterial colony (white dots) formed at the surface of the endothelial cells. (B) Quantification of the bacterial colonization was performed using Image J software.\nHBMEC were grown on Thermanox coverslips coated with gelatin 2% for 2 days to reach confluency. Cells were then infected for 1 h with a GFP-expressing mutant Enteropathogenic Escherichia coli (EPEC), which lacks the ATPase escN. This strain is unable to translocate effector proteins and is more prone to form pilus-dependent microcolony at the host cell surface (Jensen et al., 2015). Cells were then washed three times with medium to remove non-adherent bacteria and infection was pursued for 1 extra hour, to allow bacterial growth at the endothelial cell surface to form microcolonies. Trifluoperazine was then added to obtain final concentrations of 10, 20, 30 and 50 μM. After incubation for 30 minutes, cells were washed and fixed in 4% Paraformaldehyde for 10 min, washed three times with PBS. […] Quantification was done with ImageJ software (NIH). […]"}}}
{"molecule": "CN1CCN(CCCN2c3ccccc3Sc3ccc(C(F)(F)F)cc32)CC1", "note": "[Trifluoperazine]", "values": [{"measurement": "surface expression of type IV pili of PilT mutant", "setting": "[1]", "value": "did not affect"}, {"measurement": "dispersion of EPEC microcolonies at the endothelial cell surface", "setting": "[2]", "value": "induced the dispersion of these microbial colonies in a dose-dependent manner"}]}
